Publication PMC11167047 (Cell Death Discovery, 2024)

Assays:
Assay in all cases: kinome screen (33PanQinase)
Format in all cases: biochemical
[1] = target: T1, CDK3/CycC (Homo sapiens, UniProt Q00526)
T1 construct: purchased Reaction Biology Europe GmbH (formerly ProQinase)
Description: (§1) The Kinome Screening was performed by Reaction Biology Europe GmbH (http://reactionbiology.com; Freiburg i. Br., Germany).

[2] = target: T2, TSF1 (Homo sapiens, UniProt O75716)
T2 construct: purchased Reaction Biology Europe GmbH (formerly ProQinase)
Description: as §1

[3] = target: T3, TTK (Homo sapiens, UniProt P33981)
T3 construct: purchased Reaction Biology Europe GmbH (formerly ProQinase)
T3 sequence (P33981 1-857): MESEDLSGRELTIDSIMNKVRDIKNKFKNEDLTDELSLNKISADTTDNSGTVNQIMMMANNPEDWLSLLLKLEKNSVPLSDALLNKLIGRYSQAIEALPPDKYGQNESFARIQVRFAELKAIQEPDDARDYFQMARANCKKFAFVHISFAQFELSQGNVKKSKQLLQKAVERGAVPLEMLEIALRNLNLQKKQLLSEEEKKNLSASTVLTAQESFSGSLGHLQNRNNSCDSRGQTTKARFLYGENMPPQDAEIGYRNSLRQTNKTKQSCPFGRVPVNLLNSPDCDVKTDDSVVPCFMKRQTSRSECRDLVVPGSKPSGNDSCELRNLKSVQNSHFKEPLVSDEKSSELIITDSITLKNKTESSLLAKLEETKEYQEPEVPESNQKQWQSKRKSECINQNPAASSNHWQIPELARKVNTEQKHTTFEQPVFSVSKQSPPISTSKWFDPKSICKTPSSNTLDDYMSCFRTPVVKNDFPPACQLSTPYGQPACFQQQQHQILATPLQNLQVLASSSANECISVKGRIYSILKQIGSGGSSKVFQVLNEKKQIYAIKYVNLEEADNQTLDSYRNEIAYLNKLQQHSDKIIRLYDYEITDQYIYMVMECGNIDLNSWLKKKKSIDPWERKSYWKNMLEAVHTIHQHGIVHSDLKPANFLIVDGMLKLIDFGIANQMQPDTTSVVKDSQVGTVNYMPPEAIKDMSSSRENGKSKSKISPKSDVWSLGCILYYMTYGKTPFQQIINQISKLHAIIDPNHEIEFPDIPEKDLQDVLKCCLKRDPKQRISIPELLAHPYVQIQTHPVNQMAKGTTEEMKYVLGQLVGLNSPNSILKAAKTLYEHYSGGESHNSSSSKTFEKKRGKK
Description: as §1

[4] = target: T4, MAP4K2 (Homo sapiens, UniProt Q12851)
T4 construct: purchased Reaction Biology Europe GmbH (formerly ProQinase)
T4 sequence (Q12851 1-820): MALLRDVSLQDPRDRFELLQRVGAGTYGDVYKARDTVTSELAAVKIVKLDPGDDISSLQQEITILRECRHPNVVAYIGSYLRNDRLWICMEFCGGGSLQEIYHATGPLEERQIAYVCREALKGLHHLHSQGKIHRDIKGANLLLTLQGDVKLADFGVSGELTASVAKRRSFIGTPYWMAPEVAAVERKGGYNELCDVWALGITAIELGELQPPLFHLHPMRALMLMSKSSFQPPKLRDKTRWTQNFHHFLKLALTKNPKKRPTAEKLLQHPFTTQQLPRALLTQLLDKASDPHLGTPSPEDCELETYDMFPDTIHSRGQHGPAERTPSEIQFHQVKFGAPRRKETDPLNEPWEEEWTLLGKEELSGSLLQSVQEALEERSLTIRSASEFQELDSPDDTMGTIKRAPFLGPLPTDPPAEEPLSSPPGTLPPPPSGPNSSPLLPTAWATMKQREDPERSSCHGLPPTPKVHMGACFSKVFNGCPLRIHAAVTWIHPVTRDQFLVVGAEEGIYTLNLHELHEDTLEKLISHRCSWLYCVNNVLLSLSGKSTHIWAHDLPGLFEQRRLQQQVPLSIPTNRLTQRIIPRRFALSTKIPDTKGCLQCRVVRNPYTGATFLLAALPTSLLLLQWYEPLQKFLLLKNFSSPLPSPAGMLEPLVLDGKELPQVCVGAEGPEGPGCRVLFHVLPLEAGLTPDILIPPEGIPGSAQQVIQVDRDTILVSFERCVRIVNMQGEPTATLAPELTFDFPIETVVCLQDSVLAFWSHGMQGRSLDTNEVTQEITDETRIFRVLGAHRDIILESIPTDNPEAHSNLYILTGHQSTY
Description: as §1

[5] = target: T5, CK1α1 (Homo sapiens, UniProt P48729)
T5 construct: purchased Reaction Biology Europe GmbH (formerly ProQinase)
Description: as §1

[6] = target: T6, SRMS (Homo sapiens, UniProt Q9H3Y6)
T6 construct: purchased Reaction Biology Europe GmbH (formerly ProQinase)
Description: as §1

[7] = target: T7, TAOK3 (Homo sapiens, UniProt Q9H2K8)
T7 construct: purchased Reaction Biology Europe GmbH (formerly ProQinase)
T7 sequence (Q9H2K8 1-898): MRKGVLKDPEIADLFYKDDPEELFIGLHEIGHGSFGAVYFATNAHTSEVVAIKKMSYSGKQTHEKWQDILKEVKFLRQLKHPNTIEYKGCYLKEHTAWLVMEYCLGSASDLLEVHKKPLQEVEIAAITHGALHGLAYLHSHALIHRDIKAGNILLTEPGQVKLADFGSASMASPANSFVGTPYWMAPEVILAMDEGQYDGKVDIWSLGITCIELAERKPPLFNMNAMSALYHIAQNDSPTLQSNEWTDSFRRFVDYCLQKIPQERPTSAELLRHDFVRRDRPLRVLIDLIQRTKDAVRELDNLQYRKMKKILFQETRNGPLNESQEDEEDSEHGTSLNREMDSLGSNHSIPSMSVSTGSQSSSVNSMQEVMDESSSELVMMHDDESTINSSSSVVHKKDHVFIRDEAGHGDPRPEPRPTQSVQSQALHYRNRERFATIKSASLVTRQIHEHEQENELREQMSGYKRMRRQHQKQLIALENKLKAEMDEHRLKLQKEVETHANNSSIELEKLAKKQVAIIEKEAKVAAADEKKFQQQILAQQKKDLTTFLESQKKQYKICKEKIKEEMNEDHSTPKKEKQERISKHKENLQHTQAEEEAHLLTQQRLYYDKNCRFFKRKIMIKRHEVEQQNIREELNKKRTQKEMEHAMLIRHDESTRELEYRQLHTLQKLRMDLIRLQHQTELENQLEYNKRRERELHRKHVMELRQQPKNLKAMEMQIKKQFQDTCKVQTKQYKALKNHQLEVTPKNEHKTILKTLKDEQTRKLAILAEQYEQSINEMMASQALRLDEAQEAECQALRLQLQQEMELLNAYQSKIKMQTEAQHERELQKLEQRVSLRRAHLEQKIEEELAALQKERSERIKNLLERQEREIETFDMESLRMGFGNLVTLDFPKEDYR
Description: as §1

T5 sequence (P48729 whole entry): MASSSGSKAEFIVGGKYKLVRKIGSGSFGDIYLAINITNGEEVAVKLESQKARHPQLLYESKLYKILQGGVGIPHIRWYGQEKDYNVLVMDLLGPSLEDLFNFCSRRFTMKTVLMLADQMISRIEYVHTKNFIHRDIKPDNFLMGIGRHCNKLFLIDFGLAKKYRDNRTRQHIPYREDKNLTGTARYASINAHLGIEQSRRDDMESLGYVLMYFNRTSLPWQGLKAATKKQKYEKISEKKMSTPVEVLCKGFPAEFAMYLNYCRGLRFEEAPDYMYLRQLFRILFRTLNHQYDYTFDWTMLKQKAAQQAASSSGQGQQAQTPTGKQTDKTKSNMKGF
T6 sequence (Q9H3Y6 whole entry): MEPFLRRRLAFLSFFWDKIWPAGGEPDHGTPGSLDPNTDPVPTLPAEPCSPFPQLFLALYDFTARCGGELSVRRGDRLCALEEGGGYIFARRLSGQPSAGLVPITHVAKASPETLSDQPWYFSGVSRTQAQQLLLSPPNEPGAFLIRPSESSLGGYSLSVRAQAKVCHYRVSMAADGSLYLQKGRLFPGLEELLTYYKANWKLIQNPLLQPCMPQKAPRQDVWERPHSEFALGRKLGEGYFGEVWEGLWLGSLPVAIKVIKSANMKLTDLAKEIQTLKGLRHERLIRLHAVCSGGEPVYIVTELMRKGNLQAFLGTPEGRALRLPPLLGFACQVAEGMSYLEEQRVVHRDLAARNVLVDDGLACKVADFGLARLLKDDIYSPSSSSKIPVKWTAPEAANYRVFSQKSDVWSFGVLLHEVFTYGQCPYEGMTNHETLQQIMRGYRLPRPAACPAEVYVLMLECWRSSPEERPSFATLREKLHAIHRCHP
T1 sequence (Q00526 whole entry): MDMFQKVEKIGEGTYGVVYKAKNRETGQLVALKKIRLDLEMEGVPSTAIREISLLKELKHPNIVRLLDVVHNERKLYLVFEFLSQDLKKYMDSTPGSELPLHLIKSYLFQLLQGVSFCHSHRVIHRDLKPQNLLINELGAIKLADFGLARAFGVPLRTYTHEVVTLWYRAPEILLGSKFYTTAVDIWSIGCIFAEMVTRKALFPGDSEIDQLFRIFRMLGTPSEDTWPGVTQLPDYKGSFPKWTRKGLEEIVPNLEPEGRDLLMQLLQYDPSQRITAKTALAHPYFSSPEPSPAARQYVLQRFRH
T1 sequence (P24863 whole entry partner): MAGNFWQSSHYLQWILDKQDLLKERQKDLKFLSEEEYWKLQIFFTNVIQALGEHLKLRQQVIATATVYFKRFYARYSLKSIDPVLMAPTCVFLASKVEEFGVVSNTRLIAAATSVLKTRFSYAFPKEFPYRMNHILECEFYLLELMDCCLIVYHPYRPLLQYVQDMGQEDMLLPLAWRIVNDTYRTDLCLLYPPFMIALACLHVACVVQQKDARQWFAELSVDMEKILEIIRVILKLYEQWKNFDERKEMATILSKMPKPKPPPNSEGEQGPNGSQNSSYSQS
T2 sequence (O75716 whole entry): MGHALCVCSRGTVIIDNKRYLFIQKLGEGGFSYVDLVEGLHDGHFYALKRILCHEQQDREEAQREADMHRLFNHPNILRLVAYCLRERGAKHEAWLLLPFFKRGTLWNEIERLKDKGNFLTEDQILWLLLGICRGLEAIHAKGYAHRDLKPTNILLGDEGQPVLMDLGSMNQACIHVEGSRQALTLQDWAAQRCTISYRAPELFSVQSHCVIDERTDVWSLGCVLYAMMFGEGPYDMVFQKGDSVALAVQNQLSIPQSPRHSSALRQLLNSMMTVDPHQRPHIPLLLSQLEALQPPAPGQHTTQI

COc1ccnc2[nH]cc(-c3cc(N)nc(N)c3)c12 [meriolin 16]
residual kinase activity ([1]; 0.03 µM): 71 % of control | residual kinase activity ([1]; 0.3 µM): 20 % of control | residual kinase activity ([2]; 0.03 µM): 109 % of control | residual kinase activity ([2]; 0.3 µM): 104 % of control | residual kinase activity ([3]; 0.03 µM): 49 % of control | residual kinase activity ([3]; 0.3 µM): 8 % of control | residual kinase activity ([4]; 0.03 µM): 22 % of control | residual kinase activity ([4]; 0.3 µM): 4 % of control | residual kinase activity ([5]; 0.03 µM): 129 % of control | residual kinase activity ([5]; 0.3 µM): 93 % of control | residual kinase activity ([6]; 0.03 µM): 101 % of control | residual kinase activity ([6]; 0.3 µM): 93 % of control | residual kinase activity ([7]; 0.03 µM): 111 % of control | residual kinase activity ([7]; 0.3 µM): 91 % of control

c1ccc(CNc2cc(-c3c[nH]c4ncccc34)ccn2)cc1 [meriolin 36]
residual kinase activity ([1]; 0.3 µM): 9 % of control | residual kinase activity ([1]; 3 µM): 3 % of control | residual kinase activity ([2]; 0.3 µM): 57 % of control | residual kinase activity ([2]; 3 µM): 8 % of control | residual kinase activity ([3]; 0.3 µM): 55 % of control | residual kinase activity ([3]; 3 µM): 17 % of control | residual kinase activity ([4]; 0.3 µM): 3 % of control | residual kinase activity ([4]; 3 µM): 0 % of control | residual kinase activity ([5]; 0.3 µM): 110 % of control | residual kinase activity ([5]; 3 µM): 51 % of control | residual kinase activity ([6]; 0.3 µM): 93 % of control | residual kinase activity ([6]; 3 µM): 73 % of control | residual kinase activity ([7]; 0.3 µM): 44 % of control | residual kinase activity ([7]; 3 µM): 6 % of control
